Laboratory results published in US20080194545A1, “ANTIMICROBIAL COMPOSITIONS AND METHODS OF USE” (TRIUS THERAPEUTICS, priority 2007, published 2008).

What was measured:
S. aureus = assay: Antibacterial activity, minimal inhibitory concentration (MIC) against S. aureus; format: cell-based; conditions: Staphylococcus aureus
From the text: Antibacterial activity as measured by the minimal inhibitory concentrations (MIC) and minimal bactericidal concentrations of compounds are well known (see., e.g., National Committee for Clinical Laboratory Standards 2000 Performance standards for antimicrobial disk susceptibility tests: approved standard, 7th ed. M2-A7, vol. 20, no. 1, Committee for Clinical Laboratory Standards, Wayne, Pa.)
In vitro testing for antibacterial activity may be accomplished through use of a whole-cell bacterial growth inhibition assay. For example, an […] assay identifies a substance that inhibits bacterial growth. Microtiter plates are prepared with serial dilutions of the test compound, adding to the preparation a given amount of growth substrate, and providing a preparation of bacteria. Inhibition of bacterial growth is determined, for example, by observing changes in optical densities of the bacterial cultures. Inhibition of bacterial growth is determined, for example, by comparing (in the presence and absence of a test compound) the rate of growth or the absolute growth of bacterial cells. Inhibition includes a reduction of one of the above measurements by at least 20%.

S. Aureus MetRS = S. Aureus MetRS (Staphylococcus aureus, UniProt Q5HII6); assay: MetRS inhibition (coupling of radiolabeled methionine to tRNAMet, TCA-precipitable counts); format: biochemical; conditions: purified MetRS enzyme
From the text: The inhibition of MetRS activity may be monitored through use of in vitro bio-chemical assays through use of purified MetRS protein. Synthesis of a MetRS polypeptide can readily be accomplished through use of any of the various art-known techniques. For instance, a MetRS polypeptide can be synthesized chemically in vitro or recombinant DNA methods which are well known to those skilled in the art can be used to construct expression vectors containing MetRS coding sequences, and appropriate transcriptional/translational control signals. These methods include, for example, in vitro recombinant DNA techniques, synthetic techniques and in vivo recombination/genetic recombination. Alternatively, RNA capable of encoding target gene protein sequences can be chemically synthesized through use of synthesizers, for example.
The compounds of the present invention may also be evaluated for the ability to inhibit MetRS activity through use of known methods that measure the MetRS-dependent coupling of methionine to its cognate tRNA. In the assay, radiolabeled methionine, tRNA^Met and purified MetRS enzyme are incubated under appropriate conditions in the presence and absence of test compound and the amount of TCA-precipitable counts, which reflects the amount of methionine coupled to tRNA^Met, is determined.

Structure (SMILES) | MIC (S. aureus) | IC50 (S. Aureus MetRS)
COc1ccc(Oc2cc(NCc3nc4ccccc4[nH]3)nc(N3CCN(C(=O)C4CC4)CC3)n2)c(Cl)c1 [Compound 6.48] | ≤ 8 µg/mL | < 50 nM
COc1ccc(Oc2cc(NCc3nc4ccccc4[nH]3)nc(N3CCN(C(C)=O)CC3)n2)c(Cl)c1 [Compound 6.19] | ≤ 8 µg/mL | < 50 nM
COc1ccc(Oc2cc(N3CCOCC3)nc(NCc3nc4ccccc4[nH]3)n2)c(Cl)c1 [Compound 5.07] | ≤ 8 µg/mL | < 50 nM
CCN(C(C)=O)C1CCN(c2nc(NCc3nc4ccccc4[nH]3)cc(Oc3ccc(OC)cc3Cl)n2)C1 (centres unmarked) [Compound 6.62] | ≤ 8 µg/mL | < 50 nM
COc1ccc(Oc2cc(N(C)C)nc(NCc3nc4ccccc4[nH]3)n2)c(Cl)c1 [Compound 5.10] | ≤ 8 µg/mL | < 50 nM
COc1ccc(Oc2cc(N3CCN(c4ncccn4)CC3)nc(NCc3nc4ccccc4[nH]3)n2)c(Cl)c1 [Compound 5.70] | ≤ 8 µg/mL | < 50 nM
COc1ccc(Oc2cc(NCc3nc4ccccc4[nH]3)nc(N3CCNC(=O)C3)n2)c(Cl)c1 [Compound 6.30] | ≤ 8 µg/mL | < 50 nM
COc1ccc(Oc2cc(N3CCN(C(=O)c4ccco4)CC3)nc(NCc3nc4ccccc4[nH]3)n2)c(Cl)c1 [Compound 5.50] | ≤ 8 µg/mL | < 50 nM
COc1ccc(Oc2cc(NCc3nc4ccccc4[nH]3)nc(N3CCN(C(=O)C4CCCO4)CC3)n2)c(Cl)c1 (centres unmarked) [Compound 6.61] | ≤ 8 µg/mL | < 50 nM
O=C1CN(c2nc(NCc3nc4ccccc4[nH]3)cc(Oc3ccc(Cl)cc3Cl)n2)CCN1 [Compound 6.23] | ≤ 8 µg/mL | < 50 nM
O=C1CN(c2cc(Oc3ccc(Cl)cc3Cl)nc(NCc3nc4ccccc4[nH]3)n2)CCN1 [Compound 5.37] | ≤ 8 µg/mL | < 50 nM
COc1ccc(Oc2cc(N3CCC(O)C3)nc(NCc3nc4ccccc4[nH]3)n2)c(Cl)c1 (centres unmarked) [Compound 5.35] | ≤ 8 µg/mL | 
COc1cc(Cl)c(Oc2cc(NCc3nc4ccccc4[nH]3)nc(N3CCN(C(C)=O)CC3)n2)cc1OC [Compound 6.55] | ≤ 8 µg/mL | < 50 nM
COc1cc(Cl)c(Oc2cc(NCc3nc4ccccc4[nH]3)nc(N3CCNC(=O)C3)n2)cc1OC [Compound 6.56] | ≤ 8 µg/mL | < 50 nM
COc1ccc(Oc2cc(-n3cnc(C)c3)nc(NCc3nc4ccccc4[nH]3)n2)c(Cl)c1 [Compound 5.53] | ≤ 8 µg/mL | 
COc1ccc(Oc2cc(NCc3nc4ccccc4[nH]3)nc(N3CCN(C(=O)N(C)C)CC3)n2)c(Cl)c1 [Compound 6.49] | ≤ 8 µg/mL | < 50 nM
COc1ccc(Oc2cc(NNc3cc(=O)c4ccccc4[nH]3)nc(N(C)C)n2)c(Cl)c1 [Compound 6.06] | ≤ 8 µg/mL | < 50 nM
COc1ccc(Oc2cc(N3CC(C)NC(C)C3)nc(NCc3nc4ccccc4[nH]3)n2)c(Cl)c1 (centres unmarked) [Compound 5.26] | ≤ 8 µg/mL | < 50 nM
CC1CN(c2cc(Oc3ccc(Cl)cc3Cl)nc(NCc3nc4ccccc4[nH]3)n2)CC(C)N1 (centres unmarked) [Compound 5.28] | ≤ 8 µg/mL | < 50 nM
COc1ccc(Oc2cc(NCc3nc4ccccc4[nH]3)nc(N3CCN(c4ncccn4)CC3)n2)c(Cl)c1 [Compound 6.45] | ≤ 8 µg/mL | < 50 nM
COc1ccc(Oc2cc(N3CCCC3CO)nc(NCc3nc4ccccc4[nH]3)n2)c(Cl)c1 (centres unmarked) [Compound 5.51] | ≤ 8 µg/mL | < 50 nM

Results, then the compound that gave them:

MIC (S. aureus) | IC50 (S. Aureus MetRS) | Structure (SMILES)
≤ 8 µg/mL | < 50 nM | COc1cc(Cl)c(Oc2cc(NCc3nc4ccccc4[nH]3)nc(N3CCN(c4cnccn4)CC3)n2)cc1OC [Compound 6.93]
≤ 8 µg/mL | < 50 nM | COc1cc(Cl)c(Oc2cc(NCc3nc4ccccc4[nH]3)nc(N3CCN(CCN4CCCC4)CC3)n2)cc1OC [Compound 6.142]
≤ 8 µg/mL | < 50 nM | COc1cc(Cl)c(Oc2cc(NCc3nc4ccccc4[nH]3)nc(N3CCN(c4ncccn4)CC3)n2)cc1OC [Compound 6.90]
≤ 8 µg/mL | < 50 nM | COc1cc(Cl)c(Oc2cc(NCc3nc4ccccc4[nH]3)nc(N(C)C)n2)cc1OC [Compound 6.83]
≤ 8 µg/mL | < 50 nM | COc1cc(Cl)c(Oc2cc(NCc3nc4ccccc4[nH]3)nc(N3CCN(C(=O)CNc4nccs4)CC3)n2)cc1OC [Compound 6.126]
≤ 8 µg/mL | < 50 nM | COc1cc(Cl)c(Oc2cc(NCc3nc4ccccc4[nH]3)nc(N3CCC(CN4CCCC4=O)CC3)n2)cc1OC [Compound 6.145]
≤ 8 µg/mL | < 50 nM | COc1cc(Cl)c(Oc2cc(NCc3nc4ccccc4[nH]3)nc(N3CCN(Cn4ccnc4C)CC3)n2)cc1OC [Compound 6.143]
≤ 8 µg/mL | < 50 nM | COc1cc(Cl)c(Oc2cc(NCc3nc4ccccc4[nH]3)nc(N3CCN(C(=O)N(C)C)CC3)n2)cc1OC [Compound 6.89]
≤ 8 µg/mL | < 50 nM | COc1cc(Cl)c(Oc2cc(NCc3nc4ccccc4[nH]3)nc(N3CCOCC3)n2)cc1OC [Compound 6.86]
≤ 8 µg/mL | < 50 nM | CC(=O)N1CCN(c2nc(NCc3nc4ccccc4[nH]3)cc(Oc3ccc4ncccc4c3Cl)n2)CC1 [Compound 6.150]
≤ 8 µg/mL | < 50 nM | COc1cc(Cl)c(Oc2cc(NCc3nc4ccccc4[nH]3)nc(N3CCC(N4CCOCC4)CC3)n2)cc1OC [Compound 6.138]
≤ 8 µg/mL | < 50 nM | COc1cc(Cl)c(Oc2cc(NCc3nc4ccccc4[nH]3)nc(N3CCN(CCCN4CCOCC4)CC3)n2)cc1OC [Compound 6.94]
≤ 8 µg/mL | < 50 nM | COc1cc(Cl)c(Oc2cc(NCc3nc4ccccc4[nH]3)nc(N3CCN(c4ccccn4)CC3)n2)cc1OC [Compound 6.91]
≤ 8 µg/mL | < 50 nM | COc1cc(Cl)c(Oc2cc(NCc3nc4ccccc4[nH]3)nc(N3CCN(c4nccs4)CC3)n2)cc1OC [Compound 6.107]
≤ 8 µg/mL | < 50 nM | COc1cc(Cl)c(Oc2cc(NCc3nc4ccccc4[nH]3)nc(N3CCN(C(=O)N4CCOCC4)CC3)n2)cc1OC [Compound 6.134]
≤ 8 µg/mL | < 50 nM | COc1cc(Cl)c(Oc2cc(NCc3nc4ccccc4[nH]3)nc(N3CCN(c4ncncn4)CC3)n2)cc1OC [Compound 6.105]
≤ 8 µg/mL | < 50 nM | COc1cc(Cl)c(Oc2cc(NCc3nc4ccccc4[nH]3)nc(N3CCN(C(=O)C4CC4)CC3)n2)cc1OC [Compound 6.88]
≤ 8 µg/mL | < 50 nM | COc1cc(Cl)c(Oc2cc(NCc3nc4ccccc4[nH]3)nc(N3CCCN(C(C)=O)CC3)n2)cc1OC [Compound 6.63]
≤ 8 µg/mL | < 50 nM | COc1cc(Cl)c(Oc2cc(NCc3nc4ccccc4[nH]3)nc(N3CCN(C(=O)N4CCCC4)CC3)n2)cc1OC [Compound 6.144]
≤ 8 µg/mL | < 50 nM | COc1cc(Cl)c(Oc2cc(NCc3nc4ccccc4[nH]3)nc(N3CCN(c4ccncc4)CC3)n2)cc1OC [Compound 6.95]
≤ 8 µg/mL | < 50 nM | COc1cc(Cl)c(Oc2cc(NCc3nc4ccccc4[nH]3)nc(N3CCN(CCn4ccnc4)CC3)n2)cc1OC [Compound 6.113]
≤ 8 µg/mL | < 50 nM | COc1cc(Cl)c(Oc2cc(NCc3nc4ccccc4[nH]3)nc(N3CCN(CCN4CCOCC4)CC3)n2)cc1OC [Compound 6.140]
≤ 8 µg/mL | < 50 nM | COc1ccnc(N2CCN(c3nc(NCc4nc5ccccc5[nH]4)cc(Oc4cc(OC)c(OC)cc4Cl)n3)CC2)n1 [Compound 6.96]
